Experiment: in vitro
Conditions: human, hek293t cells

Structure (SMILES) | viability at 48 h, 25 µM
C=CC(=O)N1CCN(S(=O)(=O)Cc2ccon2)CC1 [1-J07, 1-{4-[(1,2-oxazol-3-yl)methanesulfonyl]piperazin-1-yl}prop-2-en-1-one] | 112%
CC(Cl)C(=O)NC(C)(C)c1cccc(Cl)c1F (stereo not drawn) [7-E15, 2-chloro-N-[2-(3-chloro-2-fluorophenyl)propan-2-yl]propanamide] | 91.2%
CN(C)S(=O)(=O)c1ccc(Cl)c(NC(=O)CCl)c1 [6-H12, 2-chloro-N-[2-chloro-5-(dimethylsulfamoyl)phenyl]acetamide] | 0.99%
N#CC(=Cc1ccc2ccccc2c1)C(=O)NC(N)=O [9-K10, {2-cyano-2-[(naphthalen-2-yl)methylidene]acetyl}urea] | 116%
Cc1ccc(S(=O)(=O)N2CCCCC2)cc1NC(=O)CCl [4-L06, 2-chloro-N-[2-methyl-5-(piperidine-1-sulfonyl)phenyl]acetamide] | 0.53%
O=C(CCl)NS(=O)(=O)c1ccc(Cl)cc1 [4-E18, 2-chloro-N-(4-chlorobenzenesulfonyl)acetamide] | 79.9%
O=C(CCl)NCCc1cccs1 [5-L09, 2-chloro-N-[2-(thiophen-2-yl)ethyl]acetamide] | 90.7%
CC(Cl)C(=O)N1CCOCC1c1ncnn1Cc1ccccc1 (stereo not drawn) [7-C08, 1-[3-(1-benzyl-1H-1,2,4-triazol-5-yl)morpholin-4-yl]-2-chloropropan-1-one] | 95.7%
C=CC(=O)NC1(Cn2cccn2)CC(F)(F)C1 [2-J17, N-{3,3-difluoro-1-[(1H-pyrazol-1-yl)methyl]cyclobutyl}prop-2-enamide] | 54.5%
C=CC(=O)Nc1cccc(C(=O)C(C)(C)C)c1 [2-I18, N-[3-(2,2-dimethylpropanoyl)phenyl]prop-2-enamide] | 105%
CCc1nocc1CN(C)C(=O)C(C)Cl (stereo not drawn) [7-M06, 2-chloro-N-[(3-ethyl-1,2-oxazol-4-yl)methyl]-N-methylpropanamide] | 95.1%
C=CC(=O)Nc1cnoc1C(C)C [3-L10, N-[5-(propan-2-yl)-1,2-oxazol-4-yl]prop-2-enamide] | 92.6%
O=C(CCl)c1cn(-c2cccc(C(F)(F)F)c2)nn1 [10-C09, 2-chloro-1-{1-[3-(trifluoromethyl)phenyl]-1H-1,2,3-triazol-4-yl}ethan-1-one] | 2.55%
O=C(CCl)NCCCC1CCCCC1 [6-O05, 2-chloro-N-(3-cyclohexylpropyl)acetamide] | 45.7%
Cc1nn(C)c(NC(=O)C(C)Cl)c1-c1ccccc1 (stereo not drawn) [7-F21, 2-chloro-N-(1,3-dimethyl-4-phenyl-1H-pyrazol-5-yl)propanamide] | 84.5%
COc1ccc(OC)c(N2C(=O)C=CC2=O)c1 [10-N15, 1-(2,5-dimethoxyphenyl)-2,5-dihydro-1H-pyrrole-2,5-dione] | 110%
CC(Cl)C(=O)NCC1(C2CC2)CCC1 (stereo not drawn) [7-A06, 2-chloro-N-[(1-cyclopropylcyclobutyl)methyl]propanamide] | 81.1%
COc1ccc(C=C(C#N)C(=O)Nc2ccc(Cl)c(Cl)c2)cc1 [8-C03, 2-cyano-N-(3,4-dichlorophenyl)-3-(4-methoxyphenyl)prop-2-enamide] | 99.6%
C=CC(=O)N(CCC(N)=O)C1CCOc2ccccc21 (stereo not drawn) [3-F13, N-(2-carbamoylethyl)-N-(3,4-dihydro-2H-1-benzopyran-4-yl)prop-2-enamide] | 69.2%
CC(Cl)C(=O)NCCc1ccccc1 (stereo not drawn) [4-K14, 2-chloro-N-(2-phenylethyl)propanamide] | 102%
O=C(CCl)N(Cc1ccoc1)C1CCCCC1 [5-B15, 2-chloro-N-cyclohexyl-N-[(furan-3-yl)methyl]acetamide] | 0.638%
CC(Cl)C(=O)Nc1ccc(S(=O)(=O)N2CCCCC2)cc1 (stereo not drawn) [4-A12, 2-chloro-N-[4-(piperidine-1-sulfonyl)phenyl]propanamide] | 64.8%
CCC1SC(=C(C#N)C(N)=O)N(c2ccc(C)cc2)C1=O (stereo not drawn) [8-J15, 2-cyano-2-[5-ethyl-3-(4-methylphenyl)-4-oxo-1,3-thiazolidin-2-ylidene]acetamide] | 117%
N#CC(=Cc1ccc(Cl)c(Cl)c1)C(=O)NCc1ccccc1 [8-B07, N-benzyl-2-cyano-3-(3,4-dichlorophenyl)prop-2-enamide] | 105%
CCS(=O)(=O)N1CCc2cc(C(=O)CCl)ccc21 [10-E18, 2-chloro-1-[1-(ethanesulfonyl)-2,3-dihydro-1H-indol-5-yl]ethan-1-one] | 1.16%
CCC1CN(CCn2cccn2)CCN1C(=O)C(C)Cl (stereo not drawn) [7-F07, 2-chloro-1-{2-ethyl-4-[2-(1H-pyrazol-1-yl)ethyl]piperazin-1-yl}propan-1-one] | 98.7%
CC(Cl)C(=O)N(Cc1ccco1)C1CCN(C)CC1 (stereo not drawn) [7-L17, 2-chloro-N-[(furan-2-yl)methyl]-N-(1-methylpiperidin-4-yl)propanamide] | 101%

Structure (SMILES) | viability at 48 h, 25 µM
CC(NC(=O)CCl)c1cn(-c2ccccc2)nn1 (stereo not drawn) [5-O06, 2-chloro-N-[1-(1-phenyl-1H-1,2,3-triazol-4-yl)ethyl]acetamide] | 4.63%
Cc1cc(C2CCCN2C(=O)C(C)Cl)no1 (stereo not drawn) [7-D19, 2-chloro-1-[2-(5-methyl-1,2-oxazol-3-yl)pyrrolidin-1-yl]propan-1-one] | 88.5%
C=CC(=O)NCC1(n2ccnn2)CC1 [2-L19, N-{[1-(1H-1,2,3-triazol-1-yl)cyclopropyl]methyl}prop-2-enamide] | 45.7%
Cc1cc(C(=O)CCl)c(C)n1-c1ccc(OC(F)(F)F)cc1 [10-G04, 2-chloro-1-{2,5-dimethyl-1-[4-(trifluoromethoxy)phenyl]-1H-pyrrol-3-yl}ethan-1-one] | 0.243%
CC(C)NC(=O)C(C#N)=Cc1ccc2ccccc2c1 [9-C13, 2-cyano-3-(naphthalen-2-yl)-N-(propan-2-yl)prop-2-enamide] | 77.9%
O=C(CCl)N1N=C(c2cccs2)CC1c1ccc(F)cc1 (stereo not drawn) [4-O20, 2-chloro-1-[5-(4-fluorophenyl)-3-(thiophen-2-yl)-4,5-dihydro-1H-pyrazol-1-yl]ethan-1-one] | 0.502%
CC(C)CC(=O)Nc1ccc(C(=O)CCl)cc1 [10-N06, N-[4-(2-chloroacetyl)phenyl]-3-methylbutanamide] | 11.7%
COc1cccc(N2C(=O)C=CC2=O)c1 [10-K03, 1-(3-methoxyphenyl)-2,5-dihydro-1H-pyrrole-2,5-dione] | 18.5%
N#CC(=Cc1c(F)c(F)c(F)c(F)c1F)C(=O)NC1CCCCC1 [8-O15, 2-cyano-N-cyclohexyl-3-(2,3,4,5,6-pentafluorophenyl)prop-2-enamide] | 0.544%
C=CC(=O)Nc1nn(C2CCCC2)c(C)c1Cl [1-O06, N-(4-chloro-1-cyclopentyl-5-methyl-1H-pyrazol-3-yl)prop-2-enamide] | 78.2%
C=CC(=O)N1CCC(C(=O)NOC2CCCC2)(c2ccccc2)CC1 [3-K06, N-(cyclopentyloxy)-4-phenyl-1-(prop-2-enoyl)piperidine-4-carboxamide] | 77.1%
C=CC(=O)Nc1nc2cc(C(F)(F)F)ccc2n1Cc1ccco1 [1-G11, N-{1-[(furan-2-yl)methyl]-5-(trifluoromethyl)-1H-1,3-benzodiazol-2-yl}prop-2-enamide] | 72.5%
CCCC(=O)N1CCC(NC(=O)CCl)c2ccccc21 (stereo not drawn) [6-E16, N-(1-butanoyl-1,2,3,4-tetrahydroquinolin-4-yl)-2-chloroacetamide] | 17.5%
COc1ccc(CCNC(=O)CCl)cc1 [5-H12, 2-chloro-N-[2-(4-methoxyphenyl)ethyl]acetamide] | 0.726%
COc1cc(NC(=O)CCl)c(Cl)cc1C(=O)O [4-M17, 5-chloro-4-(2-chloroacetamido)-2-methoxybenzoic acid] | 1.05%
COc1cc(CN(C(=O)CCl)C2CCCOC2)ccc1C (stereo not drawn) [5-E12, 2-chloro-N-[(3-methoxy-4-methylphenyl)methyl]-N-(oxan-3-yl)acetamide] | 0.549%
Cc1c(C=C(C#N)C(=O)Nc2ccccn2)cc(C#N)n1C [8-G06, 2-cyano-3-(5-cyano-1,2-dimethyl-1H-pyrrol-3-yl)-N-(pyridin-2-yl)prop-2-enamide] | 94.1%
CCc1ccc(NC(=O)C(C#N)=Cc2cccn2C)cc1 [8-A20, 2-cyano-N-(4-ethylphenyl)-3-(1-methyl-1H-pyrrol-2-yl)prop-2-enamide] | 58.7%
C=CC(=O)NC(c1ccc(C)cc1)C(C)S(C)(=O)=O (stereo not drawn) [2-A10, N-[2-methanesulfonyl-1-(4-methylphenyl)propyl]prop-2-enamide] | 100%
CC(C)(C)OC(=O)[C@H]1C[C@@H]1C(=O)CCl (racemic) [10-C13, rac-tert-butyl (1R,2R)-2-(2-chloroacetyl)cyclopropane-1-carboxylate] | 1.62%
O=C(CCl)NC(c1ccc(F)cc1)C1CCCC1 (stereo not drawn) [6-K08, 2-chloro-N-[cyclopentyl(4-fluorophenyl)methyl]acetamide] | 1.04%
C=CC(=O)N1CC[C@H](NS(C)(=O)=O)C1 [2-H21, N-[(3S)-1-(prop-2-enoyl)pyrrolidin-3-yl]methanesulfonamide] | 60.7%
CC1CN(c2cccc(CN(C)C(=O)C(C)Cl)c2)S(=O)(=O)C1 (stereo not drawn) [6-L18, 2-chloro-N-methyl-N-{[3-(4-methyl-1,1-dioxo-1lambda6,2-thiazolidin-2-yl)phenyl]methyl}propanamide] | 112%
N#CC(=Cc1ccc(C(F)(F)F)cc1)C(=O)Nc1ccccc1 [9-I04, 2-cyano-N-phenyl-3-[4-(trifluoromethyl)phenyl]prop-2-enamide] | 93.7%
O=C(CCl)N(Cc1ccco1)c1ccccc1 [4-L14, 2-chloro-N-[(furan-2-yl)methyl]-N-phenylacetamide] | 1.2%
CCc1cc(SC#N)cc(C)c1NC(=O)CCl [4-M04, 2-chloro-N-[4-(cyanosulfanyl)-2-ethyl-6-methylphenyl]acetamide] | 17.6%
C=CC(=O)Nc1ccccc1C(=O)N(C)C(C)C [3-H17, N-methyl-2-(prop-2-enamido)-N-(propan-2-yl)benzamide] | 66.9%
